# Measurements published in patent US20120087864A1, “METHOD FOR DIAGNOSING AND/OR EVALUATING RETINAL DISEASE” (R-TECH UENO, LTD., priority 2010, published 2012).
# Where “and” joins values, the source holds several entries; their conditions need not be identical. Equal entries are not always repeated. Marks after values point to notes of the source that are not given here.
# Columns and labels:
# [1] = tested on: patient with retinal pigmentosa; test: Humphrey visual field test, retinal sensitivity of central 2 degrees (4 points); type: in vivo, human; details: 0.15% solution twice a day
# Procedure: One drop or two drops of isopropyl unoprostone 0.15 w/v % ophthalmic solution per one time was administered to each eye of patient with retinal pigmentosa daily for 24 weeks, and the following items were examined. 112 patients participated this test.
# Change in retinal sensitivity of central 2 degrees (4 points) through Humphrey visual field test
# The above ophthalmic solution of Formulation Example 1 was used as the test drug.
# (1) Dosage regimen: Instillation twice* a day, one drop of a first solution was instilled at the time of first instillation and, after 5 minute, one drop of a second solution was instilled into both eyes.
# Between-group comparison of the change value of Humphrey central 4 points retinal sensitivity was made every measurement time point.
# [2] = tested on: patient with retinal pigmentosa; test: Distribution of MP-1 central 2 degrees retinal sensitivity change by concentration of metabolite A in plasma (LC/MS/MS); type: in vivo, human; details: instillation group
# Procedure: Concentration of drug in plasma (20 week after the initiation of test drug administration, the concentration of the drug in plasma after 15 minutes had passed since instillation of the second drop). Evaluate items: The concentration of isopropyl unoprostone and its metabolite A (free carboxylic acid of isopropyl unoprostone in plasma was measured.)
# Twenty weeks after the initiation of the test drug administration in Test Example 1, the concentration of the drug in plasma was measured after 15 minutes had passed since instillation of the second drop.
# Evaluation item: concentration of metabolite A (free carboxylic acid of isopropyl unoprostone) in plasma Measuring method: Twenty weeks after initiation of test drug administration, samples were obtained by drawing 4 ml of blood per time after 15 minutes had passed since instillation of the second drop, and then the concentration of the metabolite A in plasma was measured by liquid chromatogram/Tandem mass spectrometer (LC/MS/MS) using a portion of the measuring samples. Measuring apparatus: liquid chromatograph/Tandem mass spectrometer (LC/MS/MS) [High-performance liquid chromatography system (SHIMADZU 20A, manufactured by Shimadzu Corporation) Analysis column: Develosil ODS-UG-3 (2.0 mm I.D.×50 mm, 3 μm, manufactured by Nomura Chemical Co., Ltd.) Column temperature: 35° C. Injection amount: 20 μL Mobile phase A: acetonitrile/10 mmol/L ammonium acetate solution/acetic acid (20:80:0.1, v/v/v) Mobile phase B: acetonitrile/acetic acid (100:0.1, v/v) Needle wash: Methanol Flow rate: 0.25 mL/minute Mass spectrometry (API 4000, manufactured by Applied Biosystems)] Ionization method: ESI method (Turbo ion spray, 350° C.) […] Internal standard substance: 17,20-dimethyl PGF1α
# In order to evaluate a correlation of the change value (24 weeks) of average retinal sensitivity by MP-1 in central 2 degrees (4 points) with the concentration of metabolite A in plasma of the isopropyl unoprostone instillation group, when the change value (24 weeks) of average retinal sensitivity by MP-1 in central 2 degrees (4 points) was a positive value, it was classified as “improvement”. In contrast, when the change value was zero and a negative value, it was classified as “non-improvement”. Furthermore, each concentration of metabolite A in plasma (1 ng/mL, 2 ng/mL, 2.5 ng/mL and 3 ng/mL) was regarded as a boundary concentration, distribution of the change value (24 weeks) by MP-1 in central 2 degrees (4 points) average retinal sensitivity was confirmed.
# [3] = metabolite A in plasma 1.0 ng/mL or more
# [4] = metabolite A in plasma 2.0 ng/mL or more
# [5] = metabolite A in plasma 2.5 ng/mL or more
# [6] = metabolite A in plasma 3.0 ng/mL or more
# [7] = metabolite A in plasma less than 1.0 ng/mL
# [8] = metabolite A in plasma less than 2.0 ng/mL
# [9] = metabolite A in plasma less than 2.5 ng/mL
# [10] = metabolite A in plasma less than 3.0 ng/mL
smiles,measurement,setting,value
"CCCCCCCC(=O)CC[C@@H]1[C@@H](C/C=C\CCCC(=O)OC(C)C)[C@@H](O)C[C@H]1O [isopropyl unoprostone, (+)-isopropyl (Z)-7-[(1R,2R,3R,5S)-3,5-dihydroxy-2-(3-oxodecyl)cyclopentyl]hept-5-enoate]",change value of Humphrey central 4 points retinal sensitivity,"[1]; one drop per time group, after 4 weeks",−0.178
same,change value of Humphrey central 4 points retinal sensitivity,"[1]; one drop per time group, after 8 weeks",0.158
same,change value of Humphrey central 4 points retinal sensitivity,"[1]; one drop per time group, after 16 weeks",0.336
same,change value of Humphrey central 4 points retinal sensitivity,"[1]; one drop per time group, after 24 weeks",0.334
same,change value of Humphrey central 4 points retinal sensitivity,"[1]; two drops per time group, after 4 weeks",0.714
same,change value of Humphrey central 4 points retinal sensitivity,"[1]; two drops per time group, after 8 weeks",0.821
same,change value of Humphrey central 4 points retinal sensitivity,"[1]; two drops per time group, after 16 weeks",1.253*^†1
same,change value of Humphrey central 4 points retinal sensitivity,"[1]; two drops per time group, after 24 weeks",2.009 and 2.009*^†1†2
same,"number of improved cases (MP-1 central 2 degrees change value, 24 weeks, positive)",[2]; [3],33
same,number of non-improved cases,[2]; [3],18
same,ratio of improved cases,[2]; [3],(64.7%)
same,ratio of non-improved cases,[2]; [3],(35.3%)
same,"number of improved cases (MP-1 central 2 degrees change value, 24 weeks, positive)",[2]; [4],16
same,number of non-improved cases,[2]; [4],8
same,ratio of improved cases,[2]; [4],(66.7%)
same,ratio of non-improved cases,[2]; [4],(33.3%)
same,"number of improved cases (MP-1 central 2 degrees change value, 24 weeks, positive)",[2]; [5],12
same,number of non-improved cases,[2]; [5],2
same,ratio of improved cases,[2]; [5],(85.7%)
same,ratio of non-improved cases,[2]; [5],(14.3%)
same,"number of improved cases (MP-1 central 2 degrees change value, 24 weeks, positive)",[2]; [6],9
same,number of non-improved cases,[2]; [6],1
same,ratio of improved cases,[2]; [6],(90.0%)
same,ratio of non-improved cases,[2]; [6],(10.0%)
same,"number of improved cases (MP-1 central 2 degrees change value, 24 weeks, positive)",[2]; [7],11
same,number of non-improved cases,[2]; [7],11
same,ratio of improved cases,[2]; [7],(50.0%)
same,ratio of non-improved cases,[2]; [7],(50.0%)
same,"number of improved cases (MP-1 central 2 degrees change value, 24 weeks, positive)",[2]; [8],28
same,number of non-improved cases,[2]; [8],21
same,ratio of improved cases,[2]; [8],(57.1%)
same,ratio of non-improved cases,[2]; [8],(42.9%)
same,"number of improved cases (MP-1 central 2 degrees change value, 24 weeks, positive)",[2]; [9],32
same,number of non-improved cases,[2]; [9],27
same,ratio of improved cases,[2]; [9],(54.2%)
same,ratio of non-improved cases,[2]; [9],(45.8%)
same,"number of improved cases (MP-1 central 2 degrees change value, 24 weeks, positive)",[2]; [10],35
same,number of non-improved cases,[2]; [10],28
same,ratio of improved cases,[2]; [10],(55.6%)
same,ratio of non-improved cases,[2]; [10],(44.4%)
